Assay [1] has as its target T1, FLT3 kinase (Homo sapiens, UniProt P36888).
T1 sequence (P36888 564-993): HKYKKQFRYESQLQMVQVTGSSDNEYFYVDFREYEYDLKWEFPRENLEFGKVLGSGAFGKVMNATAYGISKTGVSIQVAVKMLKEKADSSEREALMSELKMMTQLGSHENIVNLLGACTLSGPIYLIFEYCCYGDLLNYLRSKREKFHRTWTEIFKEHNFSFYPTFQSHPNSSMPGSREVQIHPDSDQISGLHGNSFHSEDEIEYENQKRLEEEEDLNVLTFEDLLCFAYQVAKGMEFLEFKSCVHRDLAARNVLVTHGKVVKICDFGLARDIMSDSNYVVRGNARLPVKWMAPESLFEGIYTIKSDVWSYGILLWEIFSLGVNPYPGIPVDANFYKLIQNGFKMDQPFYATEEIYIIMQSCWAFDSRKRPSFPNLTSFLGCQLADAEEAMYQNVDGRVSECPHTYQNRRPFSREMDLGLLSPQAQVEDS
As to the kind of experiment: Kinase inhibition, fluorescence microfluidic mobility shift assay (FLT3). The format is biochemical. Particulars: substrate peptide FAM-P2 3 μM, ATP 97 μM; one hour at 28° C.; assayed in duplicate.
Experimental: Based on the experimental method of fluorescence microfluidic mobility shift assay, the IC50 value of the compound for competitive binding of ATP to kinases IRAK4 and FLT3 was determined. The initial detection concentration of the compound was 10 μM, which was diluted to 0.38 nM with a 4-fold gradient and assayed in duplicate. In this case, commercially available staurosporine was the standard control for the assay.
Information on reagents and consumables is as follows: • IRAK4 kinase (Carna, Cat. No. 09-145, Lot. No. 14CBS-0020 H) • FLT3 kinase (Carna, Cat. No. 08-154, Lot. No. 07CBS-2350) • Substrate peptide FAM-P2 (GL Biochem, Cat. No. 112394, Lot. No. P131014-XP112394) • Substrate peptide FAM-P8 (GL Biochem, Cat. No. 112396, Lot. No. P170731-SY112396) • ATP (adenosine triphosphate, Sigma, Cat. No. A7699-1G, CAS No. 987-65-5) • DMSO (dimethyl sulfoxide, Sigma, Cat. No. D2650) • EDTA (ethylenediaminetetraacetic acid, Sigma, Cat. No. E5134, CAS No. 60-00-4) • Staurosporine (Selleckchem, Cat. No. 51421) • HEPES (4-(2-Hydroxyethyl)-1-piperazineethanesulfonic acid, Gibco, Cat. No. 15630-080) • Brij-35 solution (Polyoxyethylene lauryl ether, Sigma, Cat. No. B41840-100 mL) • DTT (dithiothreitol, Sigma, Cat. No. D0632-20G) • 0.2% Coating Reagent #3 (0.2% coating reagent, Perkin Elmer, Cat. No. 760050) • 96-well plate (Corning, Cat. No. 3365) • 384-well plate (Corning, Cat. No. 3573) Experimental operation method: • 1) FLT3 and IRAK4 kinases were dissolved in the kinase buffer (50 mM HEPES pH 7.5, 10 mM MgCl2, 2 mM DTT, and 0.01% Brij-35) at final concentrations of 0.9 nM, 30 nM, and 6 nM, respectively. • 2) The substrate peptide FAM-P2 and the substrate peptide FAM-P8, together with ATP, were dissolved in the above kinase buffer, respectively, where the final concentrations of the substrate peptide FAM-P2 and ATP for the determination of FLT3 were 3 μM and 97 μM, respectively; and the final concentrations of the substrate peptide FAM-P8 and ATP for the determination of IRAK4 were 3 μM and 10 μM, respectively. • 3) Compound dilution: The compound was first diluted to 50 μM, and then diluted downward with DMSO in a 4-fold gradient. In this case, the solution without compound and kinase served as the blank control, corresponding to the “minimum value” shown below; the solution without compound but containing kinase, adenosine triphosphate, DMSO, and the buffer served as the positive control, corresponding to the “maximum value” shown below. • 4) Kinase reaction and termination: 10 μL of the kinase buffer was added to a 384-well plate containing 5 μL of the compound to be tested, and the mixture was incubated for 10 minutes at room temperature; another 10 μL, of buffer containing the substrate peptide and adenosine triphosphate was added to the 384-well plate, and after incubation for one hour at 28° C., 25 μL, of termination solution (100 mM HEPES pH 7.5, 50 mM EDTA, 0.2% Coating Reagent #3, and 0.015% Brij-35) was added to each well for reaction termination. • 5) Data reading: CaliperEZ Reader II instrument was used to read the conversion rate data. Setting conditions: downstream voltage as −500 V, upstream voltage as −2250 V, base pressure as −0.5 PSI, and screening pressure as −1.2 PSI. • 6) Data calculation: the conversion rate data was copied from CaliperEZ Reader II, and the conversion rate was converted into inhibition rate data.

Assay [2] concerns the target T2, IRAK4 kinase (Homo sapiens, UniProt Q9NWZ3).
T2 sequence (Q9NWZ3 1-460): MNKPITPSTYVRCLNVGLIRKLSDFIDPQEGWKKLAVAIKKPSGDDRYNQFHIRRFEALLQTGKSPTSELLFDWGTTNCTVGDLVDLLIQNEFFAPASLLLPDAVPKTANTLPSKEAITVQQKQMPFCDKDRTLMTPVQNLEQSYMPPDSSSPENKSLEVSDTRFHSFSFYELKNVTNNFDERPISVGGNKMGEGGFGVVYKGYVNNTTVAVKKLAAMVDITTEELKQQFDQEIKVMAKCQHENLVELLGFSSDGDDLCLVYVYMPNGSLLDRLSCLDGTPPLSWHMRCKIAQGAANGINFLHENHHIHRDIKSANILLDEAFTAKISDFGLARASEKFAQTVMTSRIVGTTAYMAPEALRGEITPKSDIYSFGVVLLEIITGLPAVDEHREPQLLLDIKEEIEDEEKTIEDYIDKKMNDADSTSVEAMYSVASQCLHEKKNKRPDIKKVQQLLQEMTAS
The assay can be described thus: Kinase inhibition, fluorescence microfluidic mobility shift assay (IRAK4). The assay is classed as biochemical. The settings on record: substrate peptide FAM-P8 3 μM, ATP 10 μM; one hour at 28° C.; assayed in duplicate.

Assay [3] concerns MV4-11 cells. The assay can be described thus: Cytotoxicity against MV4-11 cells (CellTiter-Glo). The format is cell-based. Particulars: Homo sapiens, incubated for 72 hours, CellTiter-Glo chemiluminescence. The method, then:
Determination of the IC50 Value of the Compound's Cytotoxicity Against MV4-11 Cells
MV-4-11 cells were cultured with IMDM complete medium (IMDM+10% fetal bovine serum+1% Penicillin-Streptomycin, a mixture of penicillin-streptomycin). • 2. MV-4-11 cells in good condition were collected and washed twice with DPBS ([…] phosphate buffered saline solution). • 3. MV-4-11 cells were resuspended with IMDM complete medium, the cell density was adjusted to 1.11×10^6 cells/mL, and the MV-4-11 cells were added to 96-well plates at 90 μL per well. • 4. A compound solution with 10-fold concentration was prepared with IMDM complete medium, 10 μL of the compound solution with 10-fold concentration was added to the cells in the 96-well plate, mixed well, and then the 96-well plate was placed in a 5% CO2 incubator at 37° C. and incubated for 72 hours. • 5. After the incubation, the 96-well plate was taken out and equilibrated for 30 minutes at room temperature. Then 100 μL of CellTiter Glo reagent was added to each well and mixed on a horizontal shaker for 2 minutes. • 6. The 96-well plate was removed, equilibrated at room temperature for 10 minutes, and the chemiluminescence value was detected on a microplate reader.
Background: In ATP-based viability assays light output follows the ATP content of the culture.

Each structure is given as a SMILES string.

A word on the IC50: it is the concentration at which inhibition is half-maximal. As to `COc1cc2nn(C3CCNCC3)cc2cc1NC(=O)c1coc(-c2ccnc(C(F)(F)F)c2)n1` [II-13C], the IC50 came to 0.44 nM in assay [1], 6.4 nM in assay [2] and 14.6 nM in assay [3].
For `Cc1cc(-c2nc(C(=O)Nc3cc4cn(C5CCNCC5)nc4cc3OC(C)C)co2)ccn1` [II-14C], the IC50 in assay [1] was 0.72 nM; in assay [2] it was 7.5 nM; in assay [3], 0.25 nM.
With `COc1cc2nc(C3CCNCC3)cn2cc1NC(=O)c1coc(-c2ccnc(C)c2)n1` [II-15C], the IC50 in assay [1] was 1.3 nM; in assay [2], 6.5 nM; in assay [3] it was 8.2 nM.
Taken in the same sequence, the figures for `Cc1cc(-c2nc(C(=O)Nc3cc4cc(CCC(C)(C)O)nn4cc3C(C)(C)O)co2)ccn1` [II-28] were 0.79 nM, 16 nM and 3.1 nM.
For `Cc1cc(-c2nc(C(=O)Nc3cc4cn(CCC(C)(C)O)nc4cc3C(C)(C)O)co2)ccn1` [II-49], in that order: 0.32 nM, 5.1 nM and 5 nM.
Taken in the same sequence, the figures for `Cc1cc(-c2nc(C(=O)Nc3cc4cn(CCN5CC6(COC6)C5)nc4cc3C(C)(C)O)co2)ccn1` [II-51] were 0.32 nM, 6.5 nM and 16 nM.
For `Cc1cc(-c2nc(C(=O)Nc3cc4cn(C5CCC(O)CC5)nc4cc3C(C)(C)O)co2)ccn1` (stereo not drawn) [II-54], the IC50 in assay [1] is 0.78 nM; in assay [2], 23 nM; in assay [3], 35.3 nM.
For `Cc1cc(-c2nc(C(=O)Nc3cc4cn(C5CCOCC5)nc4cc3C(C)(C)O)co2)ccn1` [II-56], the IC50 in assay [1] came to 0.24 nM; in assay [2], 3.4 nM; in assay [3] it was 4.6 nM.
In the case of `Cc1cc(-c2nc(C(=O)Nc3cc4cn(C5CCS(=O)(=O)CC5)nc4cc3C(C)(C)O)co2)ccn1` [II-57], the IC50 in assay [1] worked out at 0.3 nM; in assay [2], 6.5 nM; in assay [3] it was 13 nM.
For `Cc1cc(-c2nc(C(=O)Nc3cc4cn(C5CCN(CC(F)(F)F)CC5)nc4cc3C(C)(C)O)co2)ccn1` [II-59], in that order: 0.63 nM, 4.9 nM and 12.5 nM.
As for `CC(C)(O)CCc1cc2cc(NC(=O)c3coc(-c4ccnc(C(F)(F)F)c4)n3)c(C(C)(C)O)cn2n1` [II-92], the IC50 worked out at 15.5 nM in assay [1], 4.86 nM in assay [2] and 63.2 nM in assay [3].
Regarding `CC(C)(O)CCn1cc2cc(NC(=O)c3coc(-c4ccnc(C(F)(F)F)c4)n3)c(C(C)(C)O)cc2n1` [II-93], the IC50 was 2.2 nM in assay [1], 2.7 nM in assay [2] and 21 nM in assay [3].
Regarding `COc1cc2nn(C3CCNCC3)cc2cc1NC(=O)c1coc(-c2ccnc(C(F)F)c2)n1` [II-94C], the IC50 amounted to 0.44 nM in assay [1], 8 nM in assay [2] and 10.6 nM in assay [3].
Taken in the same sequence, the figures for `COc1cc2nn(C3CCS(=N)(=O)CC3)cc2cc1NC(=O)c1coc(-c2ccnc(C)c2)n1` (stereo not drawn) [II-95] were 0.47 nM, 12 nM and 18 nM.
Taken in the same sequence, the figures for `COc1cc2nn(C3CCS(=O)(=O)CC3)cc2cc1NC(=O)c1coc(-c2ccnc(C)c2)n1` [II-96] were 0.22 nM, 3.7 nM and 6.5 nM.
For the compound `Cc1cc(-c2nc(C(=O)Nc3cc4cn(CCN5CCC(F)(F)C5)nc4cc3C(C)(C)O)co2)ccn1` [II-97], the IC50 in assay [1] came to 0.53 nM; in assay [2], 6.9 nM; in assay [3], 13.7 nM.
For `Cc1cc(-c2nc(C(=O)Nc3cc4cn(CCC(C)(C)O)nc4cc3N3CCC(F)(F)C3)co2)ccn1` [II-98], the IC50 in assay [1] was 0.44 nM; in assay [2], 5.2 nM; in assay [3] it was 0.3 nM.
Taken in the same sequence, the figures for `Cc1cc(-c2nc(C(=O)Nc3cc4cn(C5CCC6(CNC6)C5)nc4cc3C(C)(C)O)co2)ccn1` (stereo not drawn) [II-99] were 0.26 nM, 5.5 nM and 10.9 nM.
For `Cc1cc(-c2nc(C(=O)Nc3cc4cn(C5CC6CCC(C5)N6)nc4cc3C(C)(C)O)co2)ccn1` (stereo not drawn) [II-100], in that order: 0.62 nM, 22 nM and 9 nM.
Taken in the same sequence, the figures for `Cc1cc(-c2nc(C(=O)Nc3cc4cn(C5CC6CCC(C5)N6C)nc4cc3C(C)(C)O)co2)ccn1` (stereo not drawn) [II-101] were 0.48 nM, 22 nM and 7 nM.
As for `Cc1cc(-c2nc(C(=O)Nc3cc4cn(CCC(C)(C)O)nc4cc3N3CCC(O)C3)co2)ccn1` (stereo not drawn) [II-102], the IC50 in assay [1] came out at 0.85 nM; in assay [2], 21 nM; in assay [3], 8 nM.
For `Cc1cc(-c2nc(C(=O)Nc3cc4cn(C5CCOC(C)(C)C5)nc4cc3C(C)(C)O)co2)ccn1` (stereo not drawn) [II-103], in that order: 0.35 nM, 3.2 nM and 3 nM.
As for `CC(C)c1cc(-c2nc(C(=O)Nc3cc4cn(CCC(C)(C)O)nc4cc3C(C)(C)O)co2)ccn1` [II-104], the IC50 in assay [1] came out at 2.31 nM; in assay [2] it was 5.3 nM; in assay [3], 21 nM.
On to `Cc1cc(-c2nc(C(=O)Nc3cc4cn(C5CCN(C6COC6)CC5)nc4cc3C(C)(C)O)co2)ccn1` [II-106], for which the IC50 in assay [1] amounted to 0.41 nM; in assay [2] it was 3.3 nM; in assay [3], 8 nM.
In the case of `Cc1cc(-c2nc(C(=O)Nc3cc4cn(CC5(F)CNC5)nc4cc3C(C)(C)O)co2)ccn1` [II-108], the IC50 turned out to be 0.29 nM in assay [1], 11.7 nM in assay [2] and 22 nM in assay [3].
As to `[2H]C([2H])([2H])C(O)(c1cc2nn(CCC(C)(C)O)cc2cc1NC(=O)c1coc(-c2ccnc(C(F)(F)F)c2)n1)C([2H])([2H])[2H]` [II-109], the values for the half-maximal inhibitory concentration (IC50) in assay [1], in assay [2] and in assay [3] were 4.2 nM, 6.48 nM and 15.2 nM, respectively.
As to `Cc1cc(-c2nc(C(=O)Nc3cc4cn(CCC(C)(C)O)nc4cc3C(C)(O)C(F)(F)F)co2)ccn1` (stereo not drawn) [II-111], the results for the 50% inhibitory concentration (IC50) in assay [1], in assay [2] and in assay [3] were 0.42 nM, 4.94 nM and 0.8 nM, respectively.
For `CC(C)(O)c1cc2nn([C@H]3CC[C@@H](O)CC3)cc2cc1NC(=O)c1coc(-c2ccnc(C(F)(F)F)c2)n1` [II-112], in that order: 2.8 nM, 6.96 nM and 11.9 nM.
Taken in the same sequence, the figures for `CC(C)N1CCC(n2cc3cc(NC(=O)c4coc(-c5ccnc(C(F)(F)F)c5)n4)c(C(C)(C)O)cc3n2)CC1` [II-113F] were 0.38 nM, 4.6 nM and 6 nM.
`Cc1cc(-c2nc(C(=O)Nc3cc4cn(C5CC6CCC(C5)O6)nc4cc3C(C)(C)O)co2)ccn1` (stereo not drawn) [II-114]: the figures for the IC50 in assay [1], in assay [2] and in assay [3] were 0.26 nM, 5.9 nM and 1.3 nM, respectively.
For `Cc1cc(-c2nc(C(=O)Nc3cc4cn(CC5(F)COC5)nc4cc3C(C)(C)O)co2)ccn1` [II-115], in that order: 0.25 nM, 11 nM and 2.5 nM.
`[2H]C([2H])([2H])C(O)(CCn1cc2cc(NC(=O)c3coc(-c4ccnc(C(F)(F)F)c4)n3)c(C(C)(C)O)cc2n1)C([2H])([2H])[2H]` [II-117]: the IC50 in assay [1] amounted to 4 nM; in assay [2], 5.54 nM; in assay [3] it was 23.2 nM.
For `CC(C)(O)c1cc2nn(C3CC4CCC(C3)N4)cc2cc1NC(=O)c1coc(-c2ccnc(C(F)(F)F)c2)n1` (stereo not drawn) [II-118], in that order: 0.44 nM, 12.2 nM and 6.2 nM.
Taken in the same sequence, the figures for `CC(C)(O)c1cc2nn(C3CCOCC3)cc2cc1NC(=O)c1coc(-c2ccnc(C(F)(F)F)c2)n1` [II-121] were 3.5 nM, 9.1 nM and 33 nM.
